This is an account of results in patent US10786475B2, “Method for preventing, treating, or improving fatty liver by administering effective amounts of azelaic acid to a subject” (Korea University Research and Business Foundation, priority 2018, dated 2020).

Experiment [1] has as its target T1, PPARα (Mus musculus, UniProt P23204).
T1 construct: host or cells: HEK293 cells (Korean Cell Line Bank)
T1 sequence (P23204 1-468): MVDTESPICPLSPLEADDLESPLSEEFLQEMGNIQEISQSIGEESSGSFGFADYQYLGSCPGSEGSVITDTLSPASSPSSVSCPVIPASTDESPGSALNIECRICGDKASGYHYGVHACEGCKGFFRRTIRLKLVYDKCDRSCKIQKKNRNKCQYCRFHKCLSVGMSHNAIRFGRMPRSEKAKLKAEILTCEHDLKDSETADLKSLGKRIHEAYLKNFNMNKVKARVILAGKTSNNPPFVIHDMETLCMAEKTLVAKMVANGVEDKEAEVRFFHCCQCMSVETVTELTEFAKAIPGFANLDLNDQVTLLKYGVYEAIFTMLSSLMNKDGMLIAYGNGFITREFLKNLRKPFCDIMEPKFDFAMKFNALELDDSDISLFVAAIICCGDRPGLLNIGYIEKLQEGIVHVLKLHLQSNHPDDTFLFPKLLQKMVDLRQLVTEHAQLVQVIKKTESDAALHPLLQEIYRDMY
The experiment can be described thus: PPRE-luciferase assay in HEK293 cells. Format: cell-based. Conditions: HEK293 cells transfected with pSG5-PPAR alpha, various concentrations of AzA. Here is the method:
To measure PPRE-luciferase, HEK293 cells (Korean Cell Line Bank) seeded on a 24-well plate at […] cells/well were used. pSG5-PPAR alpha (Addgene, MA, USA) was co-transfected according to a given protocol using pCMV-3×PPRE-Luc, a Renilla expression vector and Lipofectamine 2000 (Invitrogen). After 24-hour post-transfection, the cells were treated with various concentrations of an AzA, and then analyzed using a dual luciferase assay kit (Promega, Fitchburg, Wis., USA) and Victor X2 (PerkinElmer, Santa Clara, Calif.). A luciferase fluorescent signal was standardized using Renilla.

In the next experiment the test system is LPS mouse. The experiment is described as follows: LPS-induced inflammation in C57BL/6J male mouse, liver gene expression. Format: in vivo. Conditions: AzA 100 mg/kg, LPS 10 mg/kg intraperitoneally, liver 16 hours after LPS. As for the experimental part:
Eight-week-old C57BL/6J male […] were purchased from Samtako (Gyeonggi-do, Korea). All experiments were carried out according to protocols approved by the Animal Experiment Committee of Korea University (Protocol No. KUIACUC-20090420-4). Mice were maintained under a 12-hour photoperiod at 21 to 25° C. and relative humidity of 50% to 60%. In normal groups and LPS-induced groups, 100 μL of deionized water was administered to each mouse using an oral sonde for 4 days, and 100 μL of LPS was intraperitoneally injected at a dose of 10 mg/kg one hour after the administration with deionized water on the last day, Day 4. In a group into which LPS was administered after the AzA administration, each mouse was orally administered 100 μL of AzA at a dose of 100 mg/kg for 4 days, and intraperitoneally injected with 100 μL of 10 mg/kg LPS one hour after the AzA administration on the last day, Day 4. Sixteen hours after the LPS intraperitoneal injection, the mice were anesthetized with avertin, and dissected to extract liver tissue. The liver tissue was obtained, immediately stored in liquid nitrogen, and then stored at −80° C.
1 μg of RNA extracted from the stored liver tissue was used to synthesize cDNA using a ReverTra Ace® qPCR RT kit (TOYOBO, Osaka, Japan). […]

For experiment [2], the system named is PPARα. The experiment is described as follows: PPARα gene expression by qPCR in Hepa1c1c-7 cells. Format: cell-based, mouse. Conditions: 50 μM AzA, 2 hours, compared with control group. Here is the method:
To confirm the change in PPARα gene expression level by an AzA, Hepa1c1c-7 cells were seeded onto a 24-well plate at 5×10^5 cells/mL, cultured for 24 hours, and treated with 50 μM of AzA for 2 hours. Subsequently, RNA was extracted, and cDNA synthesis was performed from the extracted RNA using a ReverTra Ace® qPCR RT kit (TOYOBO, Osaka, Japan). More specifically, to increase PCR efficiency, the extracted RNA was treated at 65° C. for 5 minutes, and the resulting product was immediately stored on ice. Subsequently, a total of 8 μL of a reaction mixture was prepared with 2 μL of a 4×DNA Master Mix containing a gDNA remover, 0.5 μg of RNA and distilled water (nuclease-free water), and reacted at 37° C. for 5 minutes. Subsequently, a 5×RT Master mix was added to the reaction mixture, reacted at 37° C. for 5 minutes, at 50° C. for 5 minutes and at 98° C. for 5 minutes to synthesize cDNA. The cDNA synthesized by the above method was subjected to qPCR using a THUNDERBIRD SYBR qPCR Mix (TOYOBO) and an iQ5 iCycler system (Bio-Rad, California, USA) according to a method known to those of ordinary skill in the art. More particularly, amplification was performed with initial denaturation at 95° C. for 4.5 minutes, and 40 cycles of additional denaturation at the same temperature for 10 seconds, annealing and cooling at 55 to 60° C. for 30 seconds, and elongation at 68° C. for 20 seconds. […]

Structures are written as SMILES.

On to `O=C(O)CCCCCCCC(=O)O` [AzA, nonanedioic acid], for which the “PPARα activity (PPRE-luciferase): direct ligand for PPARα” value at PPARα [1] was “does not act as a direct ligand for PPARα”. Further, the “gene expression levels of inflammatory cytokines IL-6 and TNF-α in liver tissue” value with LPS mouse is given as “tendency of reduction in inflammatory responses”. In the experiment with PPARα [2], the PPARα expression entry was “significant increase”.
